What all share (format): in vivo, mice
Test [1] can be described thus: NAD precursor vitamins in milk. The method, then:
A series of in vivo murine experiments were performed to evaluate the effects of nicotinamide riboside on milk production. […] As shown in FIGS. 8A-C, the concentration of protein, carbohydrate and fat in the milk of NR-supplemented mothers was normal. Because there is approximately 2-fold more milk produced by NR-supplemented mothers, NR-supplemented mothers transmit more calories to their offspring, which thereby assists maternal weight loss and neonatal development. In FIG. 9A, the concentration of NAD precursor vitamins in the milk from control mothers and NR-supplemented mothers was determined. […] Oral NR was labeled with heavy atoms in the nicotinamide and ribose moieties of NR and this was provided to lactating mothers by gavage.

Test [2] is described as follows: Pup growth and weanling body composition (post-partum maternal NR). The method, then:
FIG. 15. Maternal NR increases pup growth early in the neonatal period. Neonatal pups body weight from Day 0 to Day 14 (n=5 litter per group). FIGS. 16A-D. 21 day old pups of NR-supplemented mothers are bigger. Males and females were analyzed separately. The order of the bars from left to right are: males of normal chow (NC) mothers (white with light grey outline), followed by males of NR-supplemented mothers (filled light grey), followed by females of NC mothers (white with dark grey outline), followed by females of NR-supplemented mothers (filled dark grey). […] As shown in FIG. 16A-C, 21 day old weanlings of NR-supplemented mothers are larger in overall mass, fat mass and lean mass.

Test [3] in a line: Post-partum NR supplementation: maternal body mass, food consumption, body composition. Particulars: NR only after birth. From the text:
FIGS. 6A-D. NR-supplemented mouse mothers lose weight during the 21 day lactation period without diminished food consumption (day 7-21). Delta body mass refers to day 21 post-partum maternal weight minus day 0 post-partum weight (FIG. 6A). Food consumption was day 7-21 (FIG. 6B). NR-supplemented mothers tend to lose fat (FIG. 6C) and maintain lean mass (FIG. 6D). Body composition refers to day 21 post-partum maternal fat and lean mass minus day 0 post-partum maternal fat and lean mass. A series of in vivo murine experiments were performed to evaluate whether maternally supplemented NR has the ability to improve maternal and neonatal health and development.

In another test the test system is mTOR pathway. Briefly: phospho-mTOR in mammary tissue. Particulars: NR-supplemented mothers. The text has this:
FIGS. 13A-D. NR boosts prolactin circulation and mammary biosynthetic pathways for protein, fat and carbohydrate. FIG. 13A. Prolactin levels in plasma from dam on NC or NR chow. FIG. 13B. mTOR pathway is activated in NR-supplemented mammary tissue. FIG. 13C. Genes involved in lipid biosynthesis are activated in NR-supplemented mammary tissue. FIG. 13D. Genes involved in lactose synthesis pathway are activated in NR-supplemented mammary tissue. […] In addition, the size of the mammary tissue itself is greater in NR-supplemented mothers than in non-supplemented mothers (FIG. 14A).

Another test concerns PEPCK. As to the kind of experiment: Pup liver gluconeogenic gene expression. Particulars: males and females whose mothers were NR-supplemented. From the text: (§1) FIGS. 17A-C. 22 day old pups of NR-supplemented mothers have improved post-fasting glucose homoeostasis with higher gluconeogenic gene expression and higher hepatic glycogen storage. Not only are the offspring of NR-supplemented mothers a bit bigger, they also have better glycemic control. This is due to better gluconeogenic gene expression and higher glycogen storage. The order of the bars from left to right are: males of normal chow (NC) mothers (white with light grey outline), followed by males of NR-supplemented mothers (filled light grey), followed by females of NC mothers (white with dark grey outline), followed by females of NR-supplemented mothers (filled dark grey). Earlier it was shown that supplementation of females during their pregnancy and during the lactation period with NR produced pups with better glycemic control. […] Particularly as NR is not directly transmitted to offspring of NR-supplemented mothers, none of these effects of maternally supplemented NR could have been anticipated.

A short description of test [4]: Pup post-fasting glucose and hepatic glycogen (post-partum maternal NR).
Source text: as §1

Setting [5] is: NR-supplemented vs non-supplemented mothers.
The mark [6] stands for this setting: 21 day old weanlings of NR-supplemented mothers.

As for `NC(=O)c1ccc[n+]([C@@H]2O[C@H](CO)[C@@H](O)[C@H]2O)c1` [NR, nicotinamide riboside], in test [1] (setting [5]), the “NR concentration in milk” value is reported as “moderately higher” and the “nicotinamide (Nam) concentration in milk” value is reported as “moderately higher”. Also, the “NAD precursor vitamins (total B3) transmitted” value in test [1] (concentration coupled with larger milk volume) is listed as “significantly more”. Further, in test [2] (21 day old females), the “brain weight of weanlings” value is given as “tend to have larger brain weight”. In test [2] (setting [6]), the “fat mass of weanlings” value is “larger”, the “lean mass of weanlings” value is recorded as “larger” and the “overall mass of weanlings” value was “larger”. For the same molecule, the “neonatal size (pup body weight)” value in test [2] (particularly at day 7 and 9) was “boosts neonatal size”. Also, the maternal food consumption entry in test [3] (day 7-21) is “as least as much as non-supplemented mothers”. Besides, in test [3] (day 21 minus day 0 post-partum), the maternal body weight entry is recorded as “lost significant weight”; the maternal fat mass result was “lost significant weight, specifically in fat mass”; the maternal lean mass result was “maintained their lean mass”. The phosph-mTOR in mammary entry with mTOR pathway is reported as “higher level”. Further, in the test on PEPCK, the “liver expression of the gluconeogenic bypass gene PEPCK” value is given as “higher”. For the same molecule, the “post-fasting glucose homoeostasis of pups” value in test [4] (22 day old pups of NR-supplemented mothers) is given as “improved”. Besides, in test [4] (males and females whose mothers were NR-supplemented), the “glycogen stored in liver” value is “stored more glycogen”.
